The values that follow come from patent publication US20110003858A1, “MULTIMERIC HETEROCYCLIC COMPOUNDS USEFUL AS NEUTROPHIL ELASTASE INHIBITORS” (priority 2006, published 2011).

This test deals with T1, Human Neutrophil Elastase (HNE) (Homo sapiens, UniProt P08246).
T1 construct: Human Neutrophil Elastase (HNE) purified from serum; purchased Calbiochem 324681; host or cells: natural enzyme purified from human serum (so in the source)
T1 sequence (P08246 30-247 limits assumed): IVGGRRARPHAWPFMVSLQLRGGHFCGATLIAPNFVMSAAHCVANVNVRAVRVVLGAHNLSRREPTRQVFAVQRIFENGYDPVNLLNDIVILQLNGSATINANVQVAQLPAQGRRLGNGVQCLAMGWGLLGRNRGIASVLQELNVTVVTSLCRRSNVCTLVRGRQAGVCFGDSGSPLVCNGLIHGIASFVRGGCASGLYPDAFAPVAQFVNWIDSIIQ
Kind of test: Human Neutrophil Elastase Quenched-FRET Assay. The format is biochemical. The following applies: HNE 1.7 nM, substrate MeOSuc-AAPV-AMC 100 μM, pH 7.5; read-out: Inhibition of HNE IC50. As to the method:
Human Neutrophil Elastase Quenched-FRET Assay
The assay uses Human Neutrophil Elastase (HNE) purified from serum (Calbiochem art. 324681; Ref. Baugh, R. J. et al., 1976, Biochemistry. 15, 836-841). HNE was stored in 50 mM sodium acetate (NaOAc), 200 mM sodium chloride (NaCl), pH 5.5 with added 30% glycerol at −20° C. The protease substrate used was Elastase Substrate V Fluorogenic, MeOSuc-AAPV-AMC (Calbiochem art. 324740; Ref. Castillo, M. J. et al., 1979, Anal. Biochem. 99, 53-64). The substrate was stored in dimethyl sulphoxide (DMSO) at −20° C. The assay additions were as follows: Test compounds and controls were added to black 96-well flat-bottom plates (Greiner 655076), 1 μL in 100% DMSO, followed by 30 μL HNE in assay buffer with 0.01% Triton (trade mark) X-100 detergent. The assay buffer constitution was: 100 mM Tris(hydroxymethyl)aminomethane (TRIS) (pH 7.5) and 500 mM NaCl. The enzyme and the compounds were incubated at room temperature for 15 minutes. Then 30 μl substrate in assay buffer was added. The assay was incubated for 30 minutes at room temperature. The concentrations of HNE enzyme and substrate during the incubation were 1.7 nM and 100 μM, respectively. […] Fluorescence was measured on a Wallac 1420 Victor 2 instrument at settings: Excitation 380 nm, Emission 460 nm. IC50 values were determined using Xlfit curve fitting using model 205.

The IC50 is the midpoint of a concentration-inhibition curve. `Cc1c(-c2ccnn2-c2ccc(C#N)cc2)cc(C(=O)NCC(O)CNC(=O)c2cc(-c3ccnn3-c3ccc(C#N)cc3)c(C)n(-c3cccc(C(F)(F)F)c3)c2=O)c(=O)n1-c1cccc(C(F)(F)F)c1` [Example 2, N,N′-(2-Hydroxypropane-1,3-diyl)bis(5-(1-(4-cyanophenyl)-1H-pyrazol-5-yl)-6-methyl-2-oxo-1-(3-(trifluoromethyl)phenyl)-1,2-dihydropyridine-3-carboxamide)]: the IC50 came out at 0.26 nM.
Consider `Cc1c([S+]([O-])c2ccc(C#N)cc2)cc(C(=O)NCCOCCOCCNC(=O)c2cc([S+]([O-])c3ccc(C#N)cc3)c(C)n(-c3cccc(C(F)(F)F)c3)c2=O)c(=O)n1-c1cccc(C(F)(F)F)c1` (centres unmarked) [Example 1], for which the half-maximal inhibitory concentration (IC50) turned out to be 0.61 nM.
